Reference: patent publication US20120058099A1, “USE OF HYPOXANTHINE FOR PROMOTION OF NEURONAL OUTGROWTH” (CHILDREN'S MEDICAL CENTER CORPORATION, priority 2009, published 2012)
“Also recorded” adds a separate entry of the source.

B1: BDNF: brain derived neurotrophic factor (protein, UniProt P23560 19-247, looked up)
Neurotrophic factor BDNF …: APMKEANIRGQGGLAYPGVRTHGTLESVNGPKAGSRGLTSLADTFEHVIEELLDEDQKVRPNEENNKDADLYTSRVMLSSQVPLEPPLLFLLEEYKNYLDAANMSMRVRRHSDPARRGELSVCDSISEWVTAADKKTAVDMSGGTVTVLEKVPVSKGQLKQYFYETKCNPMGYTKEGCRGIDKRHWNSQCRTTQSYVRALTMDSKKRIGWRFIRIDTSCVCTLTIKRGR

Key:
[1] = tested on: embryonic cortical neurons; test: Embryonic cortical neuron axonal outgrowth with or without BCX-34 (FIG. 2); format: cell-based, rat; conditions: inosine or hypoxanthine 100 μM, BDNF 2 ng/ml
Protocol: (§1) These experiments were done on embryonic cortical neurons. The forebrains of […] rat pups were dissected and plated in media containing serum. After 3 hours the medium was exchanged for Medium E (Irwin et al. 2006) (Proc Nati Acad Sci U S A. 2006 Nov 28;103(48):18320-5). The cells were treated the following day with inosine or hypoxanthine, in the presence and absence of the indicated amount of the inhibitor 6-thioguanine (6-TG), and allowed to grow for 3 days. The 6-TG was added 1 hour before the hypoxanthine or inosine. Following the three days of growth, the cells were fixed and stained with Taul antibody and a fluorescent secondary antibody. Axons were then counted. […] FIG. 1 presents the data obtained.
In a similar experiment, embryonic cortical neurons were given brain derived neurotrophic factor (BDNF) (2 ng/ml), inosine, or hypoxanthine (100 μM). […] The cells were then scored for neuron axonal outgrowth. The data collected is represented in FIG. 2.

Mst3b = Mst3b (Homo sapiens, UniProt Q9Y6E0); conditions: data not shown
[2] = tested on: embryonic cortical neurons; test: Embryonic cortical neuron outgrowth visualised by Tau1/MAP2 staining (FIG. 3); format: cell-based, rat; conditions: for axonal outgrowth (Tau1/MAP2 staining): BDNF 2 ng/ml or hypoxanthine 100 μM, FIG. 3
From the text: FIG. 3 is a series of photographs of embryonic cortical neurons grown in the presence of the indicated factors (BDNF, hypoxanthine, BDNF+6-thioguanine, BDNF+6-thioguanine+hypoxanthine), which have then been stained with either antibodies to Taul, antibodies to MAP2, or both antibodies to Taul and antibodies to MAP2, in order to visualize neuronal outgrowth.
as §1
Embryonic cortical neurons were grown in the presence of BDNF (2 ng/ml), hypoxanthine (100 μM), BDNF (2 ng/ml)+6-thioguanine (20 μM) , or BDNF (2 ng/ml)+6-thioguanine (20 μM)+hypoxanthine (100 μM), as described above. The cells were then fixed and stained with either antibodies to Taul, antibodies to map2, or both antibodies to Taul and antibodies to map2, and corresponding fluorescent secondary antibodies, in order to visualize axonal outgrowth.

[3] = tested on: embryonic cortical neurons; test: Embryonic cortical neuron axon outgrowth, competition with 6-thioguanine (FIG. 1); format: cell-based, rat; conditions: 6-TG 0-80 μM added 1 hour before hypoxanthine or inosine, 3 days growth
Protocol: FIG. 1 contains two separate sets of bar graphs and line graphs representative of data obtained from embryonic cortical neuron competition experiments.
as §1

Sequence of Mst3b (Q9Y6E0 whole entry): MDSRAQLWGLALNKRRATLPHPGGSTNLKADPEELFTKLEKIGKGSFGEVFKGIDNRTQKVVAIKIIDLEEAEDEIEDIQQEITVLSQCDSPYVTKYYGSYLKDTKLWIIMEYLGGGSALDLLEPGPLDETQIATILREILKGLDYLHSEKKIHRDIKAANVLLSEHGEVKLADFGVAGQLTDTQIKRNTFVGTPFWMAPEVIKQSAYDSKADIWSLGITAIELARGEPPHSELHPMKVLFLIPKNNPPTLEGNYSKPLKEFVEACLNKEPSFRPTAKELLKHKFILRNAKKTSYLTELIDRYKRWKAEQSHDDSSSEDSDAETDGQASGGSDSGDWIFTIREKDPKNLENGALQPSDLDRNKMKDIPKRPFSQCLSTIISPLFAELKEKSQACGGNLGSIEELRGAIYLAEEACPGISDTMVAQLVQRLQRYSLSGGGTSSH

Row | Molecule | induction of axonal outgrowth [1] | activation of Mst3b (Mst3b) | reversal of 6-TG inhibition of BDNF stimulated outgrowth ([2]; BDNF 2 ng/ml + 6-thioguanine 20 μM + hypoxanthine 100 μM) | axonal outgrowth (Tau1/MAP2 staining) [2] | inhibition by 6-thioguanine of inosine- and hypoxanthine-induced axon outgrowth [3] | inhibition of BDNF stimulated outgrowth ([2]; BDNF 2 ng/ml + 6-thioguanine 20 μM) | inhibition by 6-thioguanine of inosine- and hypoxanthine-induced axon outgrowth ([3]; listed as 6-thioguanine)
1 | O=c1[nH]cnc2nc[nH]c12 [hypoxanthine] | induced axonal outgrowth similarly to BDNF | activates Mst3b | inhibition can be overcome; also recorded: inhibition was overcome | cause outgrowth; also recorded: caused axonal outgrowth | similarly inhibited by 6-TG |  | 
2 | Nc1nc2nc[nH]c2c(=S)[nH]1 [6-TG, 6-thioguanine, reference compound] |  |  |  |  | competitively inhibited the actions of both inosine and hypoxanthine | can be inhibited | competitively inhibits the actions of both inosine and hypoxanthine
3 | OC[C@H]1O[C@@H](n2cnc3c(O)ncnc32)[C@H](O)[C@@H]1O [inosine, reference compound] | induced axonal outgrowth similarly to BDNF |  |  |  | similarly inhibited by 6-TG |  | 
4 | B1 |  |  |  | cause outgrowth; also recorded: caused axonal outgrowth |  |  | 
